Assay results published in US8143290B2, “Chemical compounds 572” (AstraZeneca AB, priority 2006, dated 2012).
pIC50: −log10 of the molar value.

Biological target: T1, recombinant human GR (Homo sapiens, UniProt P04150)
T1 construct: purchased Panvera/Invitrogen P2812 (kit P2893)
T1 sequence (P04150 1-777): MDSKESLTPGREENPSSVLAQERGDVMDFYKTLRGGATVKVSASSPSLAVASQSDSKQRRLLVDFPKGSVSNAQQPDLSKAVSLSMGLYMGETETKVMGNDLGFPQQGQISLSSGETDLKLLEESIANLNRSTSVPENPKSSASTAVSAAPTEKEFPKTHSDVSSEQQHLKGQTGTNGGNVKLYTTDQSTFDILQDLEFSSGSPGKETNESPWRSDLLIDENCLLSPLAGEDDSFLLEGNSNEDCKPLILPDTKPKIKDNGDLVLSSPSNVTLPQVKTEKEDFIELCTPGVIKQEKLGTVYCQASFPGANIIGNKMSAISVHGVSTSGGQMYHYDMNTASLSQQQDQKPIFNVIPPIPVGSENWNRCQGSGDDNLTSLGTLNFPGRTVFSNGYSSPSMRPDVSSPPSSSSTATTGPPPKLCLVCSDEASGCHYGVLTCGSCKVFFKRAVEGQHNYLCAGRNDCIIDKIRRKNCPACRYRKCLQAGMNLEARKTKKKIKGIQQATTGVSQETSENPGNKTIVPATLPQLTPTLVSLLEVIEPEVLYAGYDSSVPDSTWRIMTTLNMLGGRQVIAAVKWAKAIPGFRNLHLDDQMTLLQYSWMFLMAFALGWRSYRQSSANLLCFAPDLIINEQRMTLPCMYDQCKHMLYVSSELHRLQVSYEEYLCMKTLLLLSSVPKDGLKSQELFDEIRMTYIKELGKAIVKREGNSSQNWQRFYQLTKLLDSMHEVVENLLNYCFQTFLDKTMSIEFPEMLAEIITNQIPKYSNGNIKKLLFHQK
Test: Human Glucocorticoid Receptor (GR) Assay, fluorescence polarization
Type: binding
Settings: GS Red tracer, incubated 2 h at r.t., XLfit model 205, read-out: GRhuFL_FP_v2 Mean IC50
Experimental: Human Glucocorticoid Receptor (GR) Assay
The assay is based on a commercial kit from Panvera/Invitrogen (Part number P2893). The assay technology is fluorescence polarization. […] The GR and Stabilizing Peptide reagents are stored at −70° C. while the GS Red is stored at −20° C. Also included in the kit are 1M DTT (Panvera, Part number P2325, stored at −20° C.) and GR Screening buffer 10× (Panvera, Part number P2814, stored at −70° C. initially but once thawed stored at r.t.). Avoid repeated freeze/thaws for all reagents. The GR Screening buffer 10× comprises 100 mM potassium phosphate, 200 mM sodium molybdate, 1 mM EDTA and 20% DMSO.
0% control was 100% DMSO and 100% control was […] Dexamethasone. Background solution (8 μL; assay buffer 10×, Stabilizing Peptide, DTT and ice cold MQ water) was added to the background wells. GS Red solution (7 μL; assay buffer 10×, Stabilizing Peptide, DTT, GS Red and ice cold water) was added to all wells except background wells. GR solution (7 μL; assay buffer 10×, Stabilizing Peptide, DTT, GR and ice cold water) was added to all wells. The plate was sealed and incubated in a dark at r.t. for 2 h.

pIC50	Compound
8.49	Cc1cccc([C@@H](Oc2ccc3c(cnn3-c3ccc(F)cc3)c2)[C@H](C)NC(=O)C(F)(F)F)c1 [Example 24, 2,2,2-trifluoro-N-[(1R,2S)-1-[1(4-fluorophenyl)indazol-5-yl]oxy-1-(3-methylphenyl)propan-2-yl]acetamide]
7.96	CCSCc1ccc([C@@H](Oc2ccc3c(cnn3-c3ccc(F)cc3)c2)[C@H](C)NC(=O)C(F)(F)F)cc1 [Example 25, N-[(1R,2S)-1-[4-(ethylsulfanylmethyl)phenyl]-1-[1-(4-fluorophenyl)indazol-5-yl]oxy-propan-2-yl]-2,2,2-trifluoro-acetamide]
8.23	CC[S+]([O-])Cc1ccc([C@@H](Oc2ccc3c(cnn3-c3ccc(F)cc3)c2)[C@H](C)NC(=O)C(F)(F)F)cc1 (stereo partly drawn) [Example 26, N-[(1R,2S)-1-[4-(ethylsulfinylmethyl)phenyl]-1-[1-(4-fluorophenyl)indazol-5-yl]oxy-propan-2-yl]-2,2,2-trifluoro-acetamide]
8.49	CCSCc1ccc([C@@H](Oc2ccc3c(cnn3-c3ccc(F)cc3)c2)[C@H](C)NC(=O)CO)cc1 [Example 27, N-[(1R,2S)-1-[4-(ethylsulfanylmethyl)phenyl]-1-[1-(4-fluorophenyl)indazol-5-yl]oxy-propan-2-yl]-2-hydroxy-acetamide]
7.60	C[C@H](NC(=O)CCCN)[C@H](Oc1ccc2c(cnn2-c2ccc(F)cc2)c1)c1ccccc1 [Example 28, 4-Amino-N-[(1R,2S)-1-[1-(4-fluorophenyl)indazol-5-yl]oxy-1-phenyl-propan-2-yl]butanamide]
8.55	COCC(=O)N[C@@H](C)[C@H](Oc1ccc2c(cnn2-c2ccc(F)cc2)c1)c1ccccc1 [Example 31, N-[(1R,2S)-1-[1-(4-fluorophenyl)indazol-5-yl]oxy-1-phenyl-propan-2-yl]-2-methoxy-acetamide]
7.74	C[C@H](NC(=O)Cc1ccccc1)[C@H](Oc1ccc2c(cnn2-c2ccc(F)cc2)c1)c1ccccc1 [Example 33, N-[(1R,2S)-1-[1-(4-fluorophenyl)indazol-5-yl]oxy-1-phenyl-propan-2-yl]-2-phenyl-acetamide]
8.62	CC(=O)OCC(=O)N[C@@H](C)[C@H](Oc1ccc2c(cnn2-c2ccc(F)cc2)c1)c1ccccc1 [Example 34, [(1R,2S)-1-[1-(4-fluorophenyl)indazol-5-yl]oxy-1-phenyl-propan-2-yl]carbamoylmethyl acetate]
8.68	COC(=O)C(=O)N[C@@H](C)[C@H](Oc1ccc2c(cnn2-c2ccc(F)cc2)c1)c1ccccc1 [Example 35, Methyl [(1R,2S)-1-[1-(4-fluorophenyl)indazol-5-yl]oxy-1-phenyl-propan-2-yl]carbamoylformate]
8.00	C[C@H](NC(=O)C(=O)O)[C@H](Oc1ccc2c(cnn2-c2ccc(F)cc2)c1)c1ccccc1 [Example 36, [(1R,2S)-1-[1-(4-fluorophenyl)indazol-5-yl]oxy-1-phenyl-propan-2-yl]carbamoylformic acid]
8.62	CC(C)C(=O)N[C@@H](C)[C@H](Oc1ccc2c(cnn2-c2ccc(F)cc2)c1)c1ccccc1 [Example 37, N-[(1R,2S)-1-[1-(4-fluorophenyl)indazol-5-yl]oxy-1-phenyl-propan-2-yl]-2-methyl-propanamide]
8.62	C[C@H](NC(=O)CCl)[C@H](Oc1ccc2c(cnn2-c2ccc(F)cc2)c1)c1ccccc1 [Example 38, 2-Chloro-N-[(1R,2S)-1-[1-(4-fluorophenyl)indazol-5-yl]oxy-1-phenyl-propan-2-yl]acetamide]
8.19	C[C@H](NC(=O)C(Cl)Cl)[C@H](Oc1ccc2c(cnn2-c2ccc(F)cc2)c1)c1ccccc1 [Example 39, 2,2-Dichloro-N-[(1R,2S)-1-[1-(4-fluorophenyl)indazol-5-yl]oxy-1-phenyl-propan-2-yl]acetamide]
8.47	C[C@H](NC(=O)C(Cl)(Cl)Cl)[C@H](Oc1ccc2c(cnn2-c2ccc(F)cc2)c1)c1ccccc1 [Example 40, 2,2,2-Trichloro-N-[(1R,2S)-1-[1-(4-fluorophenyl)indazol-5-yl]oxy-1-phenyl-propan-2-yl]acetamide]
8.59	CCCC(=O)N[C@@H](C)[C@H](Oc1ccc2c(cnn2-c2ccc(F)cc2)c1)c1ccccc1 [Example 41, N-[(1R,2S)-1-[1-(4-fluorophenyl)indazol-5-yl]oxy-1-phenyl-propan-2-yl]butanamide]
8.66	C[C@H](NC(=O)C1CCC1)[C@H](Oc1ccc2c(cnn2-c2ccc(F)cc2)c1)c1ccccc1 [Example 43, N-[(1R,2S)-1-[1-(4-fluorophenyl)indazol-5-yl]oxy-1-phenyl-propan-2-yl]cyclobutanecarboxamide]
8.57	C[C@H](NC(=O)C(F)F)[C@H](Oc1ccc2c(cnn2-c2ccc(F)cc2)c1)c1ccccc1 [Example 44, 2,2-Difluoro-N-[(1R,2S)-1-[1-(4-fluorophenyl)indazol-5-yl]oxy-1-phenyl-propan-2-yl]acetamide]
8.47	CCc1ccc([C@@H](Oc2ccc3c(cnn3-c3ccc(F)cc3)c2)[C@H](C)NC(=O)C(F)(F)F)cc1 [Example 46, N-[(1R,2S)-1-(4-ethylphenyl)-1-[1-(4-fluorophenyl)indazol-5-yl]oxy-propan-2-yl]-2,2,2-trifluoro-acetamide]
8.60	C[C@H](NC(=O)C(F)Cl)[C@H](Oc1ccc2c(cnn2-c2ccc(F)cc2)c1)c1ccccc1 (stereo partly drawn) [Example 47, 2-Chloro-2-fluoro-N-[(1R,2S)-1-[1-(4-fluorophenyl)indazol-5-yl]oxy-1-phenyl-propan-2-yl]acetamide]
8.54	C[C@H](O)C(=O)N[C@@H](C)[C@H](Oc1ccc2c(cnn2-c2ccc(F)cc2)c1)c1ccccc1 [Example 48, (2S)-N-[(1R,2S)-1-[1-(4-fluorophenyl)indazol-5-yl]oxy-1-phenyl-propan-2-yl]-2-hydroxy-propanamide]
8.37	CCc1ccc([C@@H](Oc2ccc3c(cnn3-c3ccc(F)cc3)c2)[C@H](C)NC(=O)C(C)C)cc1 [Example 51, N-[(1R,2S)-1-(4-ethylphenyl)-1-[1-(4-fluorophenyl)indazol-5-yl]oxy-propan-2-yl]-2-methyl-propanamide]
8.54	COCC(=O)N[C@@H](C)[C@H](Oc1ccc2c(cnn2-c2ccc(F)cc2)c1)c1cccc(OC)c1 [Example 54, N-[(1R,2S)-1-[1-(4-fluorophenyl)indazol-5-yl]oxy-1-(3-methoxyphenyl)propan-2-yl]-2-methoxy-acetamide]

Compound	pIC50
C[C@H](NC(=O)CF)[C@H](Oc1ccc2c(cnn2-c2ccc(F)cc2)c1)c1ccccc1 [Example 45, 2-Fluoro-N-[(1R,2S)-1-[1-(4-fluorophenyl)indazol-5-yl]oxy-1-phenyl-propan-2-yl]acetamide]	8.59
CCc1ccc([C@@H](Oc2ccc3c(cnn3-c3ccc(F)cc3)c2)[C@H](C)NC(=O)CF)cc1 [Example 50, N-[(1R,2S)-1-(4-ethylphenyl)-1-[1-(4-fluorophenyl)indazol-5-yl]oxy-propan-2-yl]-2-fluoro-acetamide]	8.54
COc1cccc([C@@H](Oc2ccc3c(cnn3-c3ccc(F)cc3)c2)[C@H](C)NC(=O)CF)c1 [Example 53, 2-Fluoro-N-[(1R,2S)-1-[1-(4-fluorophenyl)indazol-5-yl]oxy-1-(3-methoxyphenyl)propan-2-yl]acetamide]	8.46
